# “And” between values parts separate entries of the source, which are not always exact repeats. Equal values may be shown once.
# System: 843126-344-R-J1-PDC complex spheroid viability
# Experiment: Anticancer human tumor 843126-344-R-J1-PDC patient-derived melanoma cell line growth inhibition [POLQ]
# Conditions: for viability, T/C: stronger effect = lower value
# Method: Multicellular complex tumor spheroid response to Polymerase (POL) inhibitors (novobiocin, ART-558, RP6685) in combination with a variety of drugs and investigational agents in selected tumor cell lines
# The POL inhibitors (novobiocin, ART-558, and RP6685) were evaluated both individually and in combination with standard of care and investigational anticancer small molecules within a complex spheroid model of solid tumors. . Complex spheroids include a stromal component modeled by human endothelial cells (HUVEC) and fibroblasts modeled by human mesenchymal stem cells (MSCs). The concentration ranges selected for each drug and investigational agent were based upon clinically achievable concentrations if the clinical Cmax of the agent was known.
# Compounds. The drugs and investigational agents: novobiocin (NSC847541), ART-558 (NSC835418), RP-6685 (NSC848927), peposertib (NSC802822), ceralasertib (NSC780249), elimusertib (NSC800525), camonsertib (NSC841442), AZD-1390 (NSC803789), olaparib (NSC753686), talazoparib (NSC767125), rucaparib (NSC756644), sotorasib (NSC818433), MRTX-1133 (NSC836407), SN-38 (NSC673596), topotecan (NSC609699), epotoside (NSC141540), doxorubicin (NSC123127), gemcitabine (NSC613327), 5-fluorouracil (NSC19893), paclitaxel (NSC125973), vemurafenib (NSC761431), MSA-2 (NSC828583), SN-011 (NSC837082), adavosertib (NSC754352), prexasertib (NSC758257), carboplatin (NSC241240) and oxaliplatin (NSC266046), were obtained from the National Cancer Institute (NCI) Developmental Therapeutics Program Chemical Repository (21). The FDA-approved anticancer drug set is available from the Developmental Therapeutics Program at https://dtp.cancer.gov/organization/dscb/obtaining/. […] The stock solutions were prepared in dimethyl sulfoxide (DMSO, Sigma-Aldrich, St. Louis, MO, cat. D2650), except for the platinum compounds which were prepared in saline (Quality Biological, Gaithersburg, MD, cat. 114-055-101), at 800-fold the tested concentration and stored at -70 degrees C prior to their use. All drugs and investigational agents were tested over a range starting from a high concentration at or near the clinical Cmax and decreasing in half-log increments. If the clinical Cmax for an agent had not been determined, the highest concentration tested was 10 microM, except for SN-38, which was tested at a high concentration of 1 microM.
# Cell Culture. All cells were maintained in an incubator at 37 degrees C and 5% CO2 with 95% humidity. The PDC lines were cultured according to standard operating procedures established by the NCI PDMR (https://pdmr.cancer.gov). Table 3 of the manuscript, lists the cell lines along with the number of the three cell types plated to form the mct-spheroids and media for tumor cell growth. After thawing, all PDC lines, except 997537-175-T-J1-PDC and 415267-285-R-J2-PDC, were cultured in Matrigel-coated flasks prepared with a working solution of 1X Ham's F-12 nutrient mix, without supplementation (Thermo Fisher Scientific, cat. 11765054), 100 U/mL penicillin-streptomycin (Thermo Fisher Scientific, cat. 15140122), and 2.5% Matrigel (Corning Inc., Corning, NY, cat. 354248) for the first three passages. The two PDC lines 997537-175-T-J1-PDC and 415267-285-R-J2-PDC were cultured on uncoated flasks. The 857933-349-R-J2-PDC line was cultured in 6C/Colon 1B media containing advanced DMEM/F-12 (Thermo Fisher Scientific, cat. 12634028), 10 mM HEPES (Thermo Fisher Scientific, cat. 15630080), 1X GlutaMAX supplement (Thermo Fisher Scientific, cat. 35050061), 0.1 mg/mL primocin (InvivoGen, San Diego, CA, cat. ant-pm-2), 10% defined fetal bovine serum, heat inactivated (HyClone Laboratories Inc., Logan, UT, cat. SH30070.03HI), 50% L-WRN conditioned media (ATCC, cat. CRL-3276), 1.25 mM N-Acetyl-L-cysteine (Sigma-Aldrich, cat. A9165), 10 mM nicotinamide (Sigma-Aldrich, cat. N0636), 1X B-27 supplement (Thermo Fisher Scientific, cat. 17504044), 1X N-2 supplement (Thermo Fisher Scientific, cat. […]
# 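For viability, T/C in this document: spheroids exposed to drugs for seven days before readout.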
structure (smiles),measurement,setting,value
CCc1cc2c(N3CCc4c(cc(Cn5ccnc5)cc4-c4cn(C)nc4C(F)(F)F)C3=O)ccnc2c(OC)n1 + COC1C(OC(N)=O)C(O)C(Oc2ccc3c(O)c(NC(=O)c4ccc(O)c(CC=C(C)C)c4)c(=O)oc3c2C)OC1(C)C,IC50,"curve of first compound, second compound 0.0316 µM",> 10 µM
same,IC50,"curve of first compound, second compound 0.1 µM",8.32 µM
same,IC50,"curve of first compound, second compound 0.316 µM",> 10 µM
same,IC50,"curve of first compound, second compound 1 µM",> 10 µM
same,IC50,"curve of first compound, second compound 3.16 µM",> 10 µM
same,IC50,"curve of first compound, second compound 10 µM",> 10 µM
same,"viability, T/C","second compound 0.0316 µM, first compound 0.0316 µM",94.1%
same,"viability, T/C","second compound 0.0316 µM, first compound 0.1 µM",88.3%
same,"viability, T/C","second compound 0.0316 µM, first compound 0.316 µM",87.3%
same,"viability, T/C","second compound 0.0316 µM, first compound 1 µM",78.4%
same,"viability, T/C","second compound 0.0316 µM, first compound 3.16 µM",62.2%
same,"viability, T/C","second compound 0.0316 µM, first compound 10 µM",60.8%
same,"viability, T/C","second compound 0.1 µM, first compound 0.0316 µM",82%
same,"viability, T/C","second compound 0.1 µM, first compound 0.1 µM",99.8%
same,"viability, T/C","second compound 0.1 µM, first compound 0.316 µM",92.2%
same,"viability, T/C","second compound 0.1 µM, first compound 1 µM",70.4%
same,"viability, T/C","second compound 0.1 µM, first compound 3.16 µM",63%
same,"viability, T/C","second compound 0.1 µM, first compound 10 µM",46.5%
same,"viability, T/C","second compound 0.316 µM, first compound 0.0316 µM",99.5%
same,"viability, T/C","second compound 0.316 µM, first compound 0.1 µM",78%
same,"viability, T/C","second compound 0.316 µM, first compound 0.316 µM",78%
same,"viability, T/C","second compound 0.316 µM, first compound 1 µM",73.1%
same,"viability, T/C","second compound 0.316 µM, first compound 3.16 µM",76.6%
same,"viability, T/C","second compound 0.316 µM, first compound 10 µM",62%
same,"viability, T/C","second compound 1 µM, first compound 0.0316 µM",84.5%
same,"viability, T/C","second compound 1 µM, first compound 0.1 µM",93.8%
same,"viability, T/C","second compound 1 µM, first compound 0.316 µM",78.2%
same,"viability, T/C","second compound 1 µM, first compound 1 µM",80.6%
same,"viability, T/C","second compound 1 µM, first compound 3.16 µM",65%
same,"viability, T/C","second compound 1 µM, first compound 10 µM",57.2%
same,"viability, T/C","second compound 3.16 µM, first compound 0.0316 µM",78.4%
same,"viability, T/C","second compound 3.16 µM, first compound 0.1 µM",99.7%
same,"viability, T/C","second compound 3.16 µM, first compound 0.316 µM",87.2%
same,"viability, T/C","second compound 3.16 µM, first compound 1 µM",72.6%
same,"viability, T/C","second compound 3.16 µM, first compound 3.16 µM",67.6%
same,"viability, T/C","second compound 3.16 µM, first compound 10 µM",61%
same,"viability, T/C","second compound 10 µM, first compound 0.0316 µM",80.8%
same,"viability, T/C","second compound 10 µM, first compound 0.1 µM",79.7%
same,"viability, T/C","second compound 10 µM, first compound 0.316 µM",79.5%
same,"viability, T/C","second compound 10 µM, first compound 1 µM",78.5%
same,"viability, T/C","second compound 10 µM, first compound 3.16 µM",61.7%
same,"viability, T/C","second compound 10 µM, first compound 10 µM",66.1%
CC1COCCN1c1cc(C2(O)CC3CCC(C2)O3)c2cnn(-c3ccn[nH]3)c2n1 (stereo unspecified),"viability, T/C",compound 0.0316 µM,93.2% and 82.1% and 81.5%
same,"viability, T/C",compound 0.1 µM,66.9% and 57.4% and 68.6%
same,"viability, T/C",compound 0.316 µM,63.7% and 52.7% and 51.1%
same,"viability, T/C",compound 1 µM,38% and 44.3% and 35.9%
same,"viability, T/C",compound 3.16 µM,29.8% and 23.2% and 26%
same,"viability, T/C",compound 10 µM,20% and 15.3% and 18.9%
same,IC50,curve of compound,0.527 µM and 0.355 µM and 0.353 µM
Nc1ccc(C#CCN(C(=O)Cc2ncc(C(F)(F)F)cc2C(F)(F)F)c2ccc(F)cc2)nn1,"viability, T/C",compound 0.0316 µM,98.2% [middle of 13 runs]
same,"viability, T/C",compound 0.1 µM,95.1% [middle of 13 runs]
same,"viability, T/C",compound 0.316 µM,97.8% [middle of 13 runs]
same,"viability, T/C",compound 1 µM,92.4% [middle of 12 runs]
same,"viability, T/C",compound 3.16 µM,90.4% [middle of 13 runs]
same,"viability, T/C",compound 10 µM,87.2% [middle of 13 runs]
same,IC50,"compound alone, run of 01/19/2024",> 10 µM
